Results from PubChem BioAssay AID2060495 (Molecular Pharmacology Branch, DTP, NCI, 2025).

Tested on: 521955-158-R2-J5-PDC complex spheroid viability
Assay: Anticancer human tumor 521955-158-R2-J5-PDC patient-derived pancreatic carcinoma cell line growth inhibition [GQUAD]
Settings: for IC50: curve of first compound; for viability, T/C: stronger effect = lower value; active = viability on the fitted dose curve at most 10% of control; inactive = the rest
Method in brief: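 Tumor cells were grown as complex spheroids with HUVEC endothelial cells and mesenchymal stem cells as stroma. G-quadruplex stabilizers were combined with targeted agents over half-log dilutions from near the clinical Cmax, or from 10 microM.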

[1] = second compound 0.0316 µM, first compound 0.0316 µM
[2] = second compound 0.0316 µM, first compound 0.1 µM
[3] = second compound 0.0316 µM, first compound 0.316 µM
[4] = second compound 0.0316 µM, first compound 1 µM
[5] = second compound 0.0316 µM, first compound 3.16 µM
[6] = second compound 0.0316 µM, first compound 10 µM
[7] = second compound 0.1 µM, first compound 0.0316 µM
[8] = second compound 0.1 µM, first compound 0.1 µM
[9] = second compound 0.1 µM, first compound 0.316 µM
[10] = second compound 0.1 µM, first compound 1 µM
[11] = second compound 0.1 µM, first compound 3.16 µM
[12] = second compound 0.1 µM, first compound 10 µM
[13] = second compound 0.316 µM, first compound 0.0316 µM
[14] = second compound 0.316 µM, first compound 0.1 µM
[15] = second compound 0.316 µM, first compound 0.316 µM
[16] = second compound 0.316 µM, first compound 1 µM
[17] = second compound 0.316 µM, first compound 3.16 µM
[18] = second compound 0.316 µM, first compound 10 µM
[19] = second compound 1 µM, first compound 0.0316 µM
[20] = second compound 1 µM, first compound 0.1 µM
[21] = second compound 1 µM, first compound 0.316 µM
[22] = second compound 1 µM, first compound 1 µM
[23] = second compound 1 µM, first compound 3.16 µM
[24] = second compound 1 µM, first compound 10 µM
[25] = second compound 3.16 µM, first compound 0.0316 µM
[26] = second compound 3.16 µM, first compound 0.1 µM
[27] = second compound 3.16 µM, first compound 0.316 µM
[28] = second compound 3.16 µM, first compound 1 µM
[29] = second compound 3.16 µM, first compound 3.16 µM
[30] = second compound 3.16 µM, first compound 10 µM
[31] = second compound 10 µM, first compound 0.0316 µM
[32] = second compound 10 µM, first compound 0.1 µM
[33] = second compound 10 µM, first compound 0.316 µM
[34] = second compound 10 µM, first compound 1 µM
[35] = second compound 10 µM, first compound 3.16 µM
[36] = second compound 10 µM, first compound 10 µM
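Also: spheroids exposed to agents for one week before reading.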
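For viability, T/C in this document: 100% = DMSO vehicle control viability.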

C#Cc1c(F)ccc2cc(O)cc(-c3ncc4c(N5CC6CCC(C5)N6)nc(OCC56CCCN5CC(F)C6)nc4c3F)c12 (stereo unspecified) + Cc1[nH]c2ccc(F)cc2c1-c1nc2c3cccnc3c3ncccc3c2[nH]1
1.04 µM: IC50 (second compound 10 µM)
4.29 µM: IC50 (second compound 3.16 µM)
> 10 µM: IC50 (second compound 0.1 µM)
7.53 µM: IC50 (second compound 1 µM)
3.5 µM: IC50 (second compound 0.316 µM)
1.64 µM: IC50 (second compound 0.0316 µM)
inactive: viability, T/C [1] 79.8% | viability, T/C [2] 68.6% | viability, T/C [3] 67.3% | viability, T/C [4] 40.5% | viability, T/C [5] 57% | viability, T/C [6] 36.3% | viability, T/C [7] 82.2% | viability, T/C [8] 81% | viability, T/C [9] 64.4% | viability, T/C [10] 45.1% | viability, T/C [11] 58.3% | viability, T/C [12] 46.4% | viability, T/C [13] 74.9% | viability, T/C [14] 67.4% | viability, T/C [15] 53% | viability, T/C [16] 61% | viability, T/C [17] 54% | viability, T/C [18] 42.7% | viability, T/C [19] 58.9% | viability, T/C [20] 72.2% | viability, T/C [21] 68.2% | viability, T/C [22] 57.5% | viability, T/C [23] 59.1% | viability, T/C [24] 47.4% | viability, T/C [25] 54.1% | viability, T/C [26] 58.5% | viability, T/C [27] 59.5% | viability, T/C [28] 50% | viability, T/C [29] 62.7% | viability, T/C [30] 30.9% | viability, T/C [31] 53.3% | viability, T/C [32] 55.4% | viability, T/C [33] 60.6% | viability, T/C [34] 47.4% | viability, T/C [35] 39.4% | viability, T/C [36] 26.6%

CC(C)(O)C1CCC(Nc2ccc3ncc(-c4cccc(C(F)(F)F)c4)n3n2)CC1 (stereo unspecified) + Cc1[nH]c2ccc(F)cc2c1-c1nc2c3cccnc3c3ncccc3c2[nH]1
active: viability, T/C [35] 9.89% | viability, T/C [36] 9.4%
1.89 µM: IC50 (second compound 10 µM)
1.93 µM: IC50 (second compound 3.16 µM)
2.01 µM: IC50 (second compound 0.316 µM)
1.99 µM: IC50 (second compound 0.1 µM)
2.05 µM: IC50 (second compound 0.0316 µM)
inactive: viability, T/C [1] 93.5% | viability, T/C [2] 109% | viability, T/C [3] 101% | viability, T/C [4] 125% | viability, T/C [5] 15.5% | viability, T/C [6] 10.8% | viability, T/C [7] 102% | viability, T/C [8] 107% | viability, T/C [9] 103% | viability, T/C [10] 117% | viability, T/C [11] 11.3% | viability, T/C [12] 11.7% | viability, T/C [13] 107% | viability, T/C [14] 100% | viability, T/C [15] 102% | viability, T/C [16] 116% | viability, T/C [17] 12.6% | viability, T/C [18] 14.7% | viability, T/C [19] 95.8% | viability, T/C [20] 94.3% | viability, T/C [21] 102% | viability, T/C [22] 121% | viability, T/C [23] 11.7% | viability, T/C [24] 11.9% | viability, T/C [25] 91.2% | viability, T/C [26] 79.3% | viability, T/C [27] 92.9% | viability, T/C [28] 113% | viability, T/C [29] 16.5% | viability, T/C [30] 10.7% | viability, T/C [31] 83.2% | viability, T/C [32] 87.8% | viability, T/C [33] 102% | viability, T/C [34] 126%
1.96 µM: IC50 (second compound 1 µM)

CCCS(=O)(=O)Nc1ccc(F)c(C(=O)c2c[nH]c3ncc(-c4ccc(Cl)cc4)cc23)c1F + Cc1[nH]c2ccc(F)cc2c1-c1nc2c3cccnc3c3ncccc3c2[nH]1
inactive: viability, T/C [1] 103% | viability, T/C [2] 95.9% | viability, T/C [3] 79.8% | viability, T/C [4] 105% | viability, T/C [5] 198% | viability, T/C [6] 112% | viability, T/C [7] 104% | viability, T/C [8] 86% | viability, T/C [9] 72.1% | viability, T/C [10] 97.4% | viability, T/C [11] 226% | viability, T/C [12] 96.9% | viability, T/C [13] 97.2% | viability, T/C [14] 95.5% | viability, T/C [15] 78.6% | viability, T/C [16] 101% | viability, T/C [17] 226% | viability, T/C [18] 105% | viability, T/C [19] 99.9% | viability, T/C [20] 88.6% | viability, T/C [21] 78.1% | viability, T/C [22] 102% | viability, T/C [23] 272% | viability, T/C [24] 95.2% | viability, T/C [25] 92.3% | viability, T/C [26] 76% | viability, T/C [27] 65% | viability, T/C [28] 220% | viability, T/C [29] 265% | viability, T/C [30] 99.9% | viability, T/C [31] 99.8% | viability, T/C [32] 84.9% | viability, T/C [33] 64.9% | viability, T/C [34] 173% | viability, T/C [35] 258% | viability, T/C [36] 84.6%
> 10 µM: IC50 (second compound 0.0316 µM) | IC50 (second compound 0.1 µM) | IC50 (second compound 0.316 µM) | IC50 (second compound 1 µM) | IC50 (second compound 3.16 µM) | IC50 (second compound 10 µM)
